This assay concerns Anopheles gambiae. Put plainly: Attraction tests in outdoor screenhouses: mosquitoes caught in MM-X or BG Sentinel traps baited with plant-based volatile organic compounds. The note with it: single compounds suspended in mineral oil; 300-400 released. It counts as in vivo. As to the method: Attraction tests were conducted in two sizes of outdoor screenhouses (˜5.5×7 m and 11×7 m, each>3 m high) at the Mbita research station (Odhiambo Campus, Kenya) of the International Centre of Insect Physiology & Ecology (ICIPE). The screenhouses provided a semi-natural physical environment that allowed experimental control over mosquito sample size and recovery of marked and/or released mosquitoes. It was noted that fluctuations of weather conditions would cause variations in flight behavior from night to night, affecting attraction to volatile organic compounds. The walls and ceiling were lined with netting to reduce interference from ants and spiders and to prevent mosquitoes from aggregating in the vaulted ceiling. The floor was a bed of sand, dampened daily. On the floor at each corner of the screenhouse, dampened pots served as resting harborages, which the mosquitoes typically entered at dawn. When local potted plants were included in the environment, they were spaced throughout the floor.
Tested mosquitoes were the Mbita strain of Anopheles gambiae, colonized locally about 14 years ago, but with infusions of field material in some subsequent years, to maintain genetic diversity. Adults emerging each night from daily collections of pupae were fed water only and were tested in the screenhouses the following night. At this age, both sexes still have adequate deposits of somatic energy from larval feeding but will die during the following 1.5 days without nutrients. Before sunset, the volatile organic compounds baits were installed in mosquito traps, their fans were turned on, and the mosquitoes were released from a small cage prepared for that purpose.
Attraction was measured as the number of mosquitoes caught in MM-X or BG Sentinel traps baited with plant-based volatile organic compounds. The volatile organic compounds were prepared as individual compounds suspended in mineral oil, which controlled release rate according to dosage (concentration) while also retarding release rate of all compounds. Each compound was released separately from other compounds when more than one was released simultaneously. The oil-volatile organic compound suspensions were applied to two different types of release substrates: long nylon fabric strips in the exhaust tube of the trap, and short cotton wicks suspended in a wire basket beneath the exhaust tube. […] As an example of the tested volatile organic compounds, the release profiles of hexanol and phenylacetaldehyde (suspended in hexane or mineral oil, applied to nylon sock or cotton wick) as measured in a MM-X trap is shown in FIGS. 19a and 19b, respectively. The release profiles of hexanol, linalool oxide, ocimene, pinene, and 6-methyl-5-hepten-2-one are similar to phenylacetaldehyde.
The layout of traps was designed to maximize discrimination among traps releasing different plant-based volatile organic compounds or releasing none (the blank control). The small screenhouses contained 2 traps, positioned diagonally. The large screenhouses contained 4 traps. In both sizes, the traps were near the corners, but not so close to the netting walls as to interfere with mosquito flight around the traps or the free flow of the odor plume from the traps. For replicates of each test, the positions of the traps were rotated, to minimize positional bias for one of these variables: a particular compound, particular dose of a compound, or particular combination of several compounds or their proportions. In early tests, a blank trap was always included. But after establishing that a blank trap never caught more than 10 mosquitoes, out of 300-400 released, blank traps were usually replaced by one with a bait using volatile organic compounds. The number trapped out of the total number released, expressed as a percentage, was seldom calculated, because of the large and variable numbers of mosquitoes unaccounted for by trap and aspirator recapture. […]

Data on six molecules can be found in patent publication US20160007585A1, “INSECT CONTROL DEVICE” (Clarke Mosquito Control Products, Inc., priority 2014, published 2016).

Turning to `CCCCCCO` [Hexanol, hexanol], the “attraction score (number of mosquitoes caught in baited trap), in words” value (“attraction score” for short) was “good scores even at low dosages, with little or no improvement at higher doses”.

For `CCOC(=O)Cc1ccccc1` [ethylphenylacetate], the “attraction score” value is “in higher dosages (and therefore higher release rates) gave higher attraction scores”. Next, `C=CC(C)(O)CCC=C(C)C` (stereo not drawn) [linalool]: “in higher dosages (and therefore higher release rates) gave higher attraction scores”. As to `C=CC(C)=CCC=C(C)C` [ocimene], the “attraction score” value is “in higher dosages (and therefore higher release rates) gave higher attraction scores”. Regarding `O=CCc1ccccc1` [phenylacetaldehyde], the “attraction score” value was “weak or mediocre”.

In the case of caryophyllene, the “attraction score” value is given as “in higher dosages (and therefore higher release rates) gave higher attraction scores”.
